Source: ChEMBL document CHEMBL4177608, “Design and synthesis of benzimidazole-based Rho kinase inhibitors for the treatment of glaucoma” (Bioorg Med Chem, 2017)
Values after ≈ are worked out from the molar mass of the structure shown.

Legend:
Rattus norvegicus [1] = species: Rattus norvegicus; experiment: Reduction in intraocular pressure in Wistar rat model of dexamethasone-induced elevated IOP assessed as change in intraocular pressure in contralateral eye at 1 % w/v after 3 hrs by tonometry (reference value: 0%); format: ADME, organism-based; parameters: scale not given: the % may be the effect or the level left; conditions: in vivo
[2] = 1-Octanol/water partition coefficient, log P of compound at 2 mg after 24 hrs by spectrophotometry based shake flask method; format: physicochemical
Rattus norvegicus [3] = species: Rattus norvegicus; experiment: Reduction in intraocular pressure in Wistar rat model of dexamethasone-induced elevated IOP assessed as change in intraocular pressure in contralateral eye at 1 % w/v after 4 hrs by tonometry (reference value: 0%); format: ADME, organism-based; parameters: scale not given: the % may be the effect or the level left; conditions: in vivo
Rattus norvegicus [4] = species: Rattus norvegicus; experiment: Reduction in intraocular pressure in Wistar rat model of dexamethasone-induced elevated IOP assessed as peak effect time for reduction in intraocular pressure at 1 % w/v by tonometry; format: functional, organism-based
Rattus norvegicus [5] = species: Rattus norvegicus; experiment: Reduction in intraocular pressure in Wistar rat model of dexamethasone-induced elevated IOP assessed as change in intraocular pressure at 1 % w/v after 5 hrs by tonometry (reference value: 0%); format: functional; parameters: scale not given: the % may be the effect or the level left
Rattus norvegicus [6] = species: Rattus norvegicus; experiment: Reduction in intraocular pressure in Wistar rat model of dexamethasone-induced elevated IOP assessed as change in intraocular pressure in contralateral eye at 1 % w/v after 1.5 hrs by tonometry (reference value: 0%); format: ADME, organism-based; parameters: scale not given: the % may be the effect or the level left; conditions: in vivo
Rattus norvegicus [7] = species: Rattus norvegicus; experiment: Reduction in intraocular pressure in Wistar rat model of dexamethasone-induced elevated IOP assessed as change in intraocular pressure in contralateral eye at 1 % w/v after 1 hr by tonometry (reference value: 0%); format: ADME, organism-based; parameters: scale not given: the % may be the effect or the level left; conditions: in vivo, topical_or_ocular
Rattus norvegicus [8] = species: Rattus norvegicus; experiment: Reduction in intraocular pressure in Wistar rat model of dexamethasone-induced elevated IOP assessed as change in intraocular pressure in contralateral eye at 1 % w/v after 6 hrs by tonometry (reference value: 0%); format: ADME, organism-based; parameters: scale not given: the % may be the effect or the level left; conditions: in vivo
Rattus norvegicus [9] = species: Rattus norvegicus; experiment: Reduction in intraocular pressure in Wistar rat model of dexamethasone-induced elevated IOP assessed as onset time for reduction in intraocular pressure at 1 % w/v by tonometry; format: functional
Rattus norvegicus [10] = species: Rattus norvegicus; experiment: Reduction in intraocular pressure in Wistar rat model of dexamethasone-induced elevated IOP assessed as change in intraocular pressure at 1 % w/v after 2 hrs by tonometry (reference value: 0%); format: functional; parameters: scale not given: the % may be the effect or the level left
Rattus norvegicus [11] = species: Rattus norvegicus; experiment: Reduction in intraocular pressure in Wistar rat model of dexamethasone-induced elevated IOP assessed as change in intraocular pressure in contralateral eye at 1 % w/v after 5 hrs by tonometry (reference value: 0%); format: ADME, organism-based; parameters: scale not given: the % may be the effect or the level left; conditions: in vivo
Rattus norvegicus [12] = species: Rattus norvegicus; experiment: Reduction in intraocular pressure in Wistar rat model of dexamethasone-induced elevated IOP assessed as change in intraocular pressure in contralateral eye at 1 % w/v after 2 hrs by tonometry (reference value: 0%); format: ADME, organism-based; parameters: scale not given: the % may be the effect or the level left; conditions: in vivo
Rattus norvegicus [13] = species: Rattus norvegicus; experiment: Reduction in intraocular pressure in Wistar rat model of dexamethasone-induced elevated IOP assessed as change in intraocular pressure at 1 % w/v after 1 hr by tonometry (reference value: 0%); format: functional; parameters: scale not given: the % may be the effect or the level left
Rattus norvegicus [14] = species: Rattus norvegicus; experiment: Reduction in intraocular pressure in Wistar rat model of dexamethasone-induced elevated IOP assessed as change in intraocular pressure in contralateral eye at 1 % w/v after 2.5 hrs by tonometry (reference value: 0%); format: ADME, organism-based; parameters: scale not given: the % may be the effect or the level left; conditions: in vivo
Rattus norvegicus [15] = species: Rattus norvegicus; experiment: Reduction in intraocular pressure in Wistar rat model of dexamethasone-induced elevated IOP assessed as change in intraocular pressure at 1 % w/v after 6 hrs by tonometry (reference value: 0%); format: functional; parameters: scale not given: the % may be the effect or the level left
Rattus norvegicus [16] = species: Rattus norvegicus; experiment: Reduction in intraocular pressure in Wistar rat model of dexamethasone-induced elevated IOP assessed as change in intraocular pressure at 1 % w/v after 0.5 hrs by tonometry (reference value: 0%); format: functional; parameters: scale not given: the % may be the effect or the level left
Rattus norvegicus [17] = species: Rattus norvegicus; experiment: Reduction in intraocular pressure in Wistar rat model of dexamethasone-induced elevated IOP assessed as change in intraocular pressure at 1 % w/v after 3 hrs by tonometry (reference value: 0%); format: functional; parameters: scale not given: the % may be the effect or the level left
Rattus norvegicus [18] = species: Rattus norvegicus; experiment: Reduction in intraocular pressure in Wistar rat model of dexamethasone-induced elevated IOP assessed as change in intraocular pressure at 1 % w/v after 2.5 hrs by tonometry (reference value: 0%); format: functional; parameters: scale not given: the % may be the effect or the level left
Rattus norvegicus [19] = species: Rattus norvegicus; experiment: Reduction in intraocular pressure in Wistar rat model of dexamethasone-induced elevated IOP assessed as change in intraocular pressure in contralateral eye at 1 % w/v after 0.5 hrs by tonometry (reference value: 0%); format: ADME, organism-based; parameters: scale not given: the % may be the effect or the level left; conditions: in vivo, topical_or_ocular
Rattus norvegicus [20] = species: Rattus norvegicus; experiment: Reduction in intraocular pressure in Wistar rat model of dexamethasone-induced elevated IOP assessed as change in intraocular pressure at 1 % w/v after 1.5 hrs by tonometry (reference value: 0%); format: functional; parameters: scale not given: the % may be the effect or the level left
Rattus norvegicus [21] = species: Rattus norvegicus; experiment: Reduction in intraocular pressure in Wistar rat model of dexamethasone-induced elevated IOP assessed as change in intraocular pressure at 1 % w/v after 4 hrs by tonometry (reference value: 0%); format: functional; parameters: scale not given: the % may be the effect or the level left
Rattus norvegicus [22] = species: Rattus norvegicus; experiment: Reduction in intraocular pressure in Wistar rat model of dexamethasone-induced elevated IOP assessed as reduction in intraocular pressure at peak effect time at 1 % w/v by tonometry; format: functional; parameters: scale not given: the % may be the effect or the level left
[23] = Antioxidant activity assessed as DPPH free radical scavenging activity at 200 ug/ml after 30 mins by spectrophotometric analysis; format: functional
[24] = Antioxidant activity assessed as DPPH free radical scavenging activity at 50 ug/ml after 30 mins by spectrophotometric analysis; format: functional
[25] = Antioxidant activity assessed as DPPH free radical scavenging activity at 150 ug/ml after 30 mins by spectrophotometric analysis; format: functional
[26] = Antioxidant activity assessed as DPPH free radical scavenging activity at 5 ug/ml after 30 mins by spectrophotometric analysis; format: functional
[27] = Antioxidant activity assessed as DPPH free radical scavenging activity after 30 mins by spectrophotometric analysis; format: functional
[28] = Antioxidant activity assessed as DPPH free radical scavenging activity at 25 ug/ml after 30 mins by spectrophotometric analysis; format: functional
[29] = Antioxidant activity assessed as DPPH free radical scavenging activity at 100 ug/ml after 30 mins by spectrophotometric analysis; format: functional

Row | Activity (Rattus norvegicus [1]) [%] | logP at 24 h [2] | Activity (Rattus norvegicus [3]) [%] | Activity (Rattus norvegicus [6]) [%] | Activity (Rattus norvegicus [7]) [%] | Activity (Rattus norvegicus [8]) [%] | Activity (Rattus norvegicus [11]) [%] | Activity (Rattus norvegicus [12]) [%] | Activity (Rattus norvegicus [14]) [%] | Activity (Rattus norvegicus [19]) [%] | SMILES | Tmax (Rattus norvegicus [4]) [h] | Activity (Rattus norvegicus [5]) [%] | Time (Rattus norvegicus [9]) [h] | Activity (Rattus norvegicus [10]) [%] | Activity (Rattus norvegicus [13]) [%] | Activity (Rattus norvegicus [15]) [%] | Activity (Rattus norvegicus [16]) [%] | Activity (Rattus norvegicus [17]) [%] | Activity (Rattus norvegicus [18]) [%] | Activity (Rattus norvegicus [20]) [%] | also measured
1 | 1.85 | 1.73 | 0.3 | 3.3 | 1.95 | 0 | 0 | 5.57 | 4.62 | 0.97 | Cl.O=S(=O)(c1cccc2cnccc12)N1CCCNCC1 [FASUDIL HYDROCHLORIDE] | 2 | 3.42 | 0.5 | 16.67 | 5.4 | 0.65 | 4.62 | 9 | 9.71 | 10.17 | Activity (Rattus norvegicus [21]): 7.8%; Activity (Rattus norvegicus [22]): 54.84%
2 | 0.87 | 0.94 | 0 | 3.2 | 2.02 | 0 | 0 | 4.07 | 1.27 | 0.9 | O=C(CN1CCN(c2ccccc2F)CC1)Nc1nc2ccccc2[nH]1 | 2.5 | 0.95 | 0.5 | 12.47 | 6.5 | 0.17 | 2.82 | 11.7 | 13.5 | 9.77 | Activity [23]: 70.6%; Activity [24]: 37.4%; Activity [25]: 56.6%; Activity [26]: 11.6%; IC50 [27]: 121.33 µg/mL (≈ 343 µM); Activity [28]: 18.8%; Activity [29]: 47.7%; Activity (Rattus norvegicus [21]): 7.52%; Activity (Rattus norvegicus [22]): 46.61%
3 | 0.65 | 1.05 | 0 | 2 | 1.15 | 0 | 0 | 4 | 1.07 | 0.85 | O=C(CN1CCN(c2ccccn2)CC1)Nc1nc2ccccc2[nH]1 | 2 | 2.87 | 0.5 | 15.87 | 7 | 0.65 | 4 | 7.82 | 10.62 | 10 | Activity [23]: 76.2%; Activity [24]: 50%; Activity [25]: 69.1%; Activity [26]: 30.8%; IC50 [27]: 69.97 µg/mL (≈ 208 µM); Activity [28]: 40.9%; Activity [29]: 57.3%; Activity (Rattus norvegicus [21]): 5.05%; Activity (Rattus norvegicus [22]): 51.38%
4 | 2.15 | 1.67 | 0.55 | 4 | 2.08 | 0 | 0 | 5.75 | 6.57 | 1.08 | CN1CCN(CC(=O)Nc2nc3ccccc3[nH]2)CC1 | 2.5 | 1.35 | 0.5 | 12.97 | 9.77 | 0.3 | 5.47 | 10.3 | 13.57 | 11.95 | Activity [23]: 61.6%; Activity [24]: 33.5%; Activity [25]: 54.3%; Activity [26]: 11%; IC50 [27]: 137.54 µg/mL (≈ 503 µM); Activity [28]: 19.9%; Activity [29]: 45%; Activity (Rattus norvegicus [21]): 4.45%; Activity (Rattus norvegicus [22]): 44.68%
